For 1 molecule, inhibition results are on record in patent publication US9187471B2, “Pyrido [4,3-b] indole and pyrido [3,4-b] indole derivatives and methods of use” (Medivation Technologies, Inc., priority 2010, dated 2015).

Usually inhibition stands for the share of the control response that was lost under treatment.

Test [1] deals with T1, human recombinant adrenergic α2A receptor (Homo sapiens, UniProt P08913).
T1 construct: expressed in transfected cells; host or cells: insect Sf9 cells
T1 sequence (P08913 1-465): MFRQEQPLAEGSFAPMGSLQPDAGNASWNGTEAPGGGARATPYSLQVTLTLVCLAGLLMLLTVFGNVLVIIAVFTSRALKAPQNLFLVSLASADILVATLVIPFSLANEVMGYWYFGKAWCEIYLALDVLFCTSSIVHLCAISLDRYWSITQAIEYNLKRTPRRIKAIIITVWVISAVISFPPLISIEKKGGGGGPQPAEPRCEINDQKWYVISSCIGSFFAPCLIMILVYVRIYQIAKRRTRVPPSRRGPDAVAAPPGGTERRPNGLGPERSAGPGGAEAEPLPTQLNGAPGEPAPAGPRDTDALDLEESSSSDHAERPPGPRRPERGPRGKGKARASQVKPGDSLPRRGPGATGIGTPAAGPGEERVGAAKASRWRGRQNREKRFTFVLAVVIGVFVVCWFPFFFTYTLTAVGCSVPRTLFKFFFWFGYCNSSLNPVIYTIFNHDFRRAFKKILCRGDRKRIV
Description: Adrenergic α2A radioligand binding ([3H]MK-912). Particulars: read-out: Adrenergic (0.1 μM) a2A, percent inhibition of specific binding; compound at 0.1 μM; 1 nM [3H]MK-912. The protocol: To evaluate in radioligand binding assays the activity of compounds of the invention, human recombinant adrenergic α2A receptor expressed in insect Sf9 cells (Uhlen, S. et al, J. Pharmacol. Exp. Ther. 271:1558, 1994) in a modified Tris-HCl buffer (50 mM Tris-HCl, pH 7.4, 12.5 mM MgCl2, 2 mM EDTA) was used. Compounds of invention were incubated with 1 nM [^3H]MK-912 for 60 min at 25° C. MK-912 is (2S-trans)-1,3,4,5′,6,6′,7,12b-octahydro-1′,3′-dimethyl-spiro[2H-benzofuro[2,3-a]quinolizine-2,4′(1′H)-pyrimidin]-2′(3′H)-one hydrochloride Non-specific binding was estimated in the presence of 10 μM WB-4101 (2-(2,6-Dimethoxyphenoxyethyl)aminomethyl-1,4-benzodioxane hydrochloride). Receptor proteins were filtered and washed, the filters were then counted to determine [^3H]MK-912 specifically bound. […] Compounds of the invention were tested in this biochemical assay and percent inhibition of specific binding was determined.

Test [2] deals with T2, human recombinant adrenergic α2B receptor (Homo sapiens, UniProt P18089).
T2 construct: expressed in transfected cells; host or cells: CHO-K1
T2 sequence (P18089 1-450): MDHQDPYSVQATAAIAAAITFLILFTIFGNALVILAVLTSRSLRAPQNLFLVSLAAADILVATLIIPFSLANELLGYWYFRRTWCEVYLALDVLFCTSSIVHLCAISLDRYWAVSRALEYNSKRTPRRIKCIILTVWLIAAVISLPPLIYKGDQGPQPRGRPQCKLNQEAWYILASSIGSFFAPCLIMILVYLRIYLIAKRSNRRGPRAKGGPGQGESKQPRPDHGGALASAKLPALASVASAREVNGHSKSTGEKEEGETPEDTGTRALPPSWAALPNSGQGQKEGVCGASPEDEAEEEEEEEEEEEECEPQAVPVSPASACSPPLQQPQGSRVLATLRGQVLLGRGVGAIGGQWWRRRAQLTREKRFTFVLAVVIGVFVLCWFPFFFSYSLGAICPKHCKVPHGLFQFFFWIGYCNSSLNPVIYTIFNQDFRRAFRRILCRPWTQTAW
Description: Adrenergic α2B radioligand binding ([3H]Rauwolscine). Conditions: read-out: Adrenergic (0.1 μM) a2B, percent inhibition of specific binding; compound at 0.1 μM; 2.5 nM [3H]Rauwolscine.
Description: To evaluate in radioligand binding assays the activity of compounds of the invention, human recombinant adrenergic α2B receptor expressed in Chinese hamster ovary (CHO) K1 cells (Uhlen, S. et al, Eur. J. Pharmacol. 343(1):93, 1998) in a modified Tris-HCl buffer (50 mM Tris-HCl, pH 7.4, 12.5 mM MgCl2, 1 mM EDTA, 0.2% BSA) was used. Compounds of the invention were incubated with 2.5 nM [^3H]Rauwolscine for 60 min at 25° C. Non-specific binding was estimated in the presence of 10 μM Prazosin. Receptor proteins were filtered and washed, the filters were then counted to determine [^3H]Rauwolscine specifically bound. […] Compounds of the invention were tested in this biochemical assay and percent inhibition of specific binding was determined.

For test [3], the target named is T3, human recombinant adrenergic α2C receptor (Homo sapiens, UniProt P18825).
T3 construct: expressed in transfected cells; host or cells: insect Sf9 cells
T3 sequence (P18825 1-462): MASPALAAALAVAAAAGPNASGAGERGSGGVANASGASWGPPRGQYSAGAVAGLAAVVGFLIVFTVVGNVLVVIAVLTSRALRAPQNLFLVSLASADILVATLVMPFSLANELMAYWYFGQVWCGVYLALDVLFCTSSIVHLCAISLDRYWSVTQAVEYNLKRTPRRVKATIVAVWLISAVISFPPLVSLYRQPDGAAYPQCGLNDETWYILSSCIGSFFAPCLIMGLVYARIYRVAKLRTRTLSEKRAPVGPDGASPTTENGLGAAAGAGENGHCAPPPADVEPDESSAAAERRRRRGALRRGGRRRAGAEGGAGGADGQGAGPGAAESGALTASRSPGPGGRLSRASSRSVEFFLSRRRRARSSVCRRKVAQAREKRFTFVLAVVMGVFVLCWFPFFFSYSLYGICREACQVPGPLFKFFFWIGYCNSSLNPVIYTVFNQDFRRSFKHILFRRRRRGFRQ
Description: Adrenergic α2C radioligand binding ([3H]MK-912). Conditions: read-out: Adrenergic (0.1 μM) a2C, percent inhibition of specific binding; compound at 0.1 μM; 1 nM [3H]MK-912. In short, it runs like this:
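Membranes from Sf9 cells expressing the human receptor, in 50 mM Tris-HCl pH 7.4 with 12.5 mM MgCl2 and 2 mM EDTA, incubated with compound and 1 nM [3H]MK-912 for 60 min at 25 °C. Non-specific binding defined with 10 μM WB-4101. Filter-bound radioactivity counted; percent inhibition of specific binding reported.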

The target of test [4] is T4, human recombinant dopamine D2L receptor (Homo sapiens, UniProt P14416).
T4 construct: expressed in transfected cells; host or cells: CHO
T4 sequence (P14416 whole entry): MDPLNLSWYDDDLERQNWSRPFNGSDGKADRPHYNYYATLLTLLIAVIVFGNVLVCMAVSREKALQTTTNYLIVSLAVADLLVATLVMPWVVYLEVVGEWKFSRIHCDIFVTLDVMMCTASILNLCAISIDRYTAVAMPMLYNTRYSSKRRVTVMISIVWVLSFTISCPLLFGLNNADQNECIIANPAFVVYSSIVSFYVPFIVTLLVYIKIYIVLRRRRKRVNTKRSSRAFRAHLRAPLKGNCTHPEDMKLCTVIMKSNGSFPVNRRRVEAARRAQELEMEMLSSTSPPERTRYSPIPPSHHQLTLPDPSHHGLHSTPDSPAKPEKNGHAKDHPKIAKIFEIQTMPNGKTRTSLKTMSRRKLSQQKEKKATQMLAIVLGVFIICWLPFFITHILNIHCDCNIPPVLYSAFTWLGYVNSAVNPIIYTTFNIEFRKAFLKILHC
Description: Dopamine D2L radioligand binding ([3H]Spiperone). Particulars: read-out: Dopamine D2L (1 μM), percent inhibition of specific binding; compound at 1 μM; 0.16 nM [3H]Spiperone. The protocol:
Non-specific binding was estimated in the presence of 10 μM Haloperidol. Receptor proteins were filtered and washed, the filters were then counted to determine [^3H]Spiperone specifically bound.

In test [5] the target is T5, human recombinant serotonin (5-Hydroxytryptamine) 5-HT7 receptor (Homo sapiens, UniProt P34969).
T5 construct: expressed in transfected cells; host or cells: CHO
T5 sequence (P34969 whole entry): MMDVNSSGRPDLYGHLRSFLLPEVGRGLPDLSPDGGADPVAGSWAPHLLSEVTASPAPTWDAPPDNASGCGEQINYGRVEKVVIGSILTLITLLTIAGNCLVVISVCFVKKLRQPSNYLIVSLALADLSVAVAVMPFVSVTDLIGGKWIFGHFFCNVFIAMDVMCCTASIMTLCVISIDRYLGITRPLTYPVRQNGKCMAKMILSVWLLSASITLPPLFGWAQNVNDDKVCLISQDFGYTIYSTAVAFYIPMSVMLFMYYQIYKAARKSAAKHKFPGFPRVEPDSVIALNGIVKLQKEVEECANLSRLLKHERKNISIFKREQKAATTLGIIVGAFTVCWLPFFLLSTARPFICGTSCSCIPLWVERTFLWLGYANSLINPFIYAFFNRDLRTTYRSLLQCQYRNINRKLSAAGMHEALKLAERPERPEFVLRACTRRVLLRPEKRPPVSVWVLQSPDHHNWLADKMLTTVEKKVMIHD
Description: Serotonin 5-HT7 radioligand binding ([3H]LSD). Particulars: compound at 0.1 μM; read-out: Inhibition of ligand binding, Serotonin 5-HT7 (percent inhibition of specific binding). The method, then:
Lysergic acid diethylamide (LSD) for 120 min. at 25° C. […] Receptor proteins were filtered and washed, the filters were then counted to determine [^3H]LSD specifically bound.

As for `CNC(=O)c1cccc(-c2ccc(-n3c4c(c5cc(C)ccc53)CN(C)CC4)nc2)c1` [Compound No. 143, 3-(6-(2,8-dimethyl-3,4-dihydro-1H-pyrido[4,3-b]indol-5(2H)-yl)pyridin-3-yl)-N-methylbenzamide], the inhibition at 0.1 µM in test [1] was determined as 44%; in test [2] it was 77%; in test [3], 8%; in test [5], 11%. Moreover, in test [4], the inhibition at 1 µM came out at 19%.
